In patent US4237135A, “2-(4-Ethyl-1-piperazinyl)-4-phenylquinoline, process for preparation thereof, and composition thereof” (Dainippon Pharmaceutical Co., Ltd., priority 1978, dated 1980):
Like-named read-outs stand apart in the source and are kept apart here.

How the values were obtained:
[1] = system: spontaneous locomotor activity; experiment: Inhibitory effect on spontaneous locomotor activity; type: in vivo, male STD-ddY strain mice
Protocol: (§1) Pharmacological experiments have been done on the compound of the present invention, some known and novel analogous compounds and an antidepressant on the market, as mentioned below. In the experiments, ED50 was calculated by Litchfield-Wilcoxon method.
Male mice of STD-ddY strain, weighing 20-25 g, were used in groups of 5 mice each. Each test compound was given orally to the mice in 5 different doses, and 2 hours later the spontaneous locomotor activity of each mouse was measured for 3 minutes by means of an Animex locomotor activity meter (made by Farad Electronics). ED50 was calculated for each compound. The ED50 means the dose of test compound in which the locomotor activity was reduced to 50% of that of control group receiving saline.

antidepressant activity = experiment: Antidepressant activity, overall (Test 1); type: in vivo, male STD-ddY strain mice; male Wistar strain rats
Protocol: This effect was examined according to the method of […]. 2, 725 (1963)], using male STD-ddY strain mice weighing 20-25 g. […] Rectal temperature of each mouse was measured 4 hours later with a thermister (Shibaura Electric, BMG III-130). […] Male STD-ddY strain mice, weighing […], were used in groups of 10 mice each. […] The mice were tested for catalepsy 1 hour after the administration of test compounds. ED50 was calculated for each compound. […] Male STD-ddY strain mice, weighing 20-25 g, were used in groups of 10 mice each. […] Two hours after the tetrabenazine injection, the degree of eyelid closure (ptosis) was assessed on the basis of macroscopic scoring (0: no closure of the eyelid, 1: 1/4 closure, 2: 2/4 closure, 3: 3/4 closure and 4: complete closure), essentially according to the method of P. A. J. Janssen [Arzneim. Forsch. 15, 104 (1965)]. ED50 was calcuated for each compound. […] Male Wistar strain rats, weighing 240-260 g, which had developed mouse-killing behavior after ablation of the olfactory bulb according to the method of Z. P. Horovitz [Int. J. Neuropharmacol. 5, 405 (1966)], were used in groups of 15 animals each. […] ED50 was calculated for each compound.

tremorine-induced tremor = experiment: Anti-tremorine activity (antagonistic effect on tremorine-induced tremor); type: in vivo, male STD-ddY strain mice
Protocol: as §1
Male STD-ddY strain mice, weighing 20-25 g, were used in groups of 5 mice each. Each test compound was given orally to the mice in 5 different doses, and 2 hours later 20 mg/kg of tremorine was injected intraperitoneally. Half an hour after the injection of tremorine, each mouse was examined macroscopically for tremor severity, according to the rating scale with the scores 0, 1, 2, and 3 depending on the severity. ED50 was calculated for each compound. The ED50 means the dose of test compound in which the tremorine-induced tremor was inhibited by 50% in severity.

[2] = system: mouse-killing behavior of olfactory bulb-ablated rats; experiment: Suppressing effect on mouse-killing behavior in olfactory bulb-ablated rats; type: in vivo, male Wistar strain rats
Protocol: as §1
Male Wistar strain rats, weighing 240-260 g, which had developed mouse-killing behavior after ablation of the olfactory bulb according to the method of Z. P. Horovitz [Int. J. Neuropharmacol. 5, 405 (1966)], were used in groups of 15 animals each. Each test compound was given intraperitoneally to the rats in 6 different doses, and 1 hours later the rats were each tested as to whether they killed a mouse or not. ED50 was calculated for each compound.

[3] = system: brain 3-methoxy-4-hydroxyphenylethylene glycol sulfate (MOPEG-SO4); experiment: Effect on brain monoamine metabolites: MOPEG-SO4; type: in vivo, male Wistar strain rats; conditions: 100 mg/kg p.o.; for Brain MOPEG-SO4, % of control: *P<0.01
Protocol: (§2) Each test compound was given orally to the rats in a dose of 100 mg/kg and, 1, 3 and 6 hours later the rats were sacrificed. […] The concentrations of the monoamine metabolites were calculated in terms of ng/g wet brain tissue and expressed as % of the concentrations of controls receiving saline.

Acute toxicity = conditions: mouse, in vivo, 7 days observation
Protocol: (§3) Male STD-ddY strain mice, weighing 20-25 g, were used. Each test compound was given orally or intraperitoneally to the mice (each group: 10 mice) in 5 to 7 different doses, and their mortality was examined during the observation period of 7 days. The median lethal dose (LD50) was calculated for each compound by the probit method.

mice = experiment: Acute toxicity; conditions: mouse, in vivo
Protocol: as §3

[4] = system: hypothermia induced by reserpine; experiment: Anti-reserpine activity: antagonistic effect on hypothermia induced by reserpine; type: in vivo, male STD-ddY strain mice; conditions: p.o.; for ED50: Mus musculus, po, 4 h, reserpine 5 mg/kg i.p.
Protocol: Pharmacological experiments have been done on the compound of the present invention, some known and novel analogous compounds and an antidepressant on the market, as mentioned below. In the experiments, ED50 was calculated by Litchfield-Wilcoxon method. This effect was examined according to the method of […]. 2, 725 (1963)], using male STD-ddY strain mice weighing 20-25 g. […] Rectal temperature of each mouse was measured 4 hours later with a thermister (Shibaura Electric, BMG III-130).

[5] = system: ptosis induced by tetrabenazine; experiment: Anti-tetrabenazine activity: antagonistic effect on ptosis induced by tetrabenazine; type: in vivo, male STD-ddY strain mice; conditions: Mus musculus, po; tetrabenazine 70 mg/kg i.p.; Table 2
Protocol: Pharmacological experiments have been done on the compound of the present invention, some known and novel analogous compounds and an antidepressant on the market, as mentioned below. In the experiments, ED50 was calculated by Litchfield-Wilcoxon method. Male STD-ddY strain mice, weighing 20-25 g, were used in groups of 10 mice each. […] Two hours after the tetrabenazine injection, the degree of eyelid closure (ptosis) was assessed on the basis of macroscopic scoring (0: no closure of the eyelid, 1: 1/4 closure, 2: 2/4 closure, 3: 3/4 closure and 4: complete closure), essentially according to the method of P. A. J. Janssen [Arzneim. Forsch. 15, 104 (1965)]. ED50 was calcuated for each compound.

[6] = system: brain homovanillic acid (HVA); experiment: Effect on brain monoamine metabolites: HVA; type: in vivo, male Wistar strain rats; conditions: 100 mg/kg p.o.; for Brain HVA, % of control: *P<0.01
Protocol: as §2

CCN1CCN(c2cc(-c3ccccc3)c3ccccc3n2)CC1.Cl.Cl [A, 2-(4-Ethyl-1-piperazinyl)-4-phenylquinoline dihydrochloride]
ED50 ([1]; Mus musculus, po, 2 hours after dosing, read-out: Spontan. locomotor ED50): 58.7 mg/kg | Activity relative to chlorpromazine, spontaneous locomotor activity ([1]; fraction of chlorpromazine activity, p.o.): about 1/8 | Anti-reserpine activity (in words) (antidepressant activity; hypothermia and catalepsy, p.o.): more potent anti-reserpine activity than imipramine | Antidepressant activity (in words) (antidepressant activity; overall conclusion): more potent than its analogues, compounds 1 and 2 and also than imipramine | Anti-reserpine and anti-tetrabenazine potency relative to compounds 4 and 5 (antidepressant activity; versus compounds 4 and 5, Table 2, p.o.): 2-17 times more potent | ED50 (tremorine-induced tremor; Mus musculus, po, tremorine 20 mg/kg i.p., read-out: Anti-tremorine activity ED50): 9.7 mg/kg | Anti-tremorine activity (in words) (tremorine-induced tremor; p.o.): more potent than imipramine and almost comparable to biperiden | ED50 ([2]; Rattus norvegicus, ip, 1 hour after dosing, read-out: Suppressing effect on mouse-killing behavior of olfactory bulb-ablated rats, ED50): 5 mg/kg | Suppression of mouse-killing behavior (in words) ([2]; versus imipramine, i.p.): as potent as imipramine | Brain MOPEG-SO4 concentration / noradrenaline turnover (in words) [3]: significant decrease in brain MOPEG-SO4 concentration | Brain MOPEG-SO4, % of control ([3]; 1 hour): 82 % of control | Brain MOPEG-SO4, % of control ([3]; 3 hours): 70 % of control | Brain MOPEG-SO4, % of control ([3]; 6 hours): 63 % of control | LD50 at 168 h (Acute toxicity; ip): 119 mg/kg | LD50 at 168 h (Acute toxicity; po): 568 mg/kg | Acute toxicity (in words) (mice): comparable to or somewhat weaker than that of imipramine | ED50 ([4]; Table 1, read-out: Anti-reserpine activity ED50, hypothermia): 5.8 mg/kg | ED50 ([4]; Table 2, read-out: Anti-reserpine ED50, hypothermia): 5.8 mg/kg | Potency in antagonizing reserpine hypothermia relative to imipramine ([4]; versus imipramine): 3.7 times more powerful | ED50 [5]: 1.8 mg/kg | Brain HVA concentration / dopamine turnover (in words) [6]: marked increase in brain HVA concentration | Brain HVA, % of control ([6]; 1 hour): 193 % of control | Brain HVA, % of control ([6]; 3 hours): 186 % of control | Brain HVA, % of control ([6]; 6 hours): 186 % of control
